The values below come from patent publication US6544541B1, “Devices and compounds for treating arterial restenosis” (Cardiovascular Solutions, Inc., priority 1999, dated 2003).

Some results are limits rather than exact numbers.

In data set [1] the test system is porcine coronary arteries. The data set can be described thus: coronary artery organ culture after balloon angioplasty (neointimal index). The settings on record: 25 μM in culture media over 14 days; FIG. 10. The text has this:
Although smooth muscle cell cultures can be used to determine the ability of a compound to inhibit proliferation, these cells are not good indicators of a compound's ability to prevent restenosis. This statement stems from the fact that several processes, including cell migration, proliferation and synthesis of ECM degrading enzymes, must be coordinately activated in order for restenosis to occur. A novel organ culture system has therefore been developed in order to test the effectiveness of MIBG and other compounds at preventing restenosis (Wilson et al, 1999, Cardiac Res 42: 761-772). In brief, hearts are transported from the abattoir to the laboratory on ice. The left descending coronary artery is exposed and a balloon catheter is inserted past the first bifurcation. The balloon is inflated, and after 1 minute is deflated and withdrawn. The damaged region (approximately 20 mm in length) is excised, cut into 4 pieces of 5 mm and each piece is placed into an individual well of a culture dish. These segments can be maintained in media containing 20% serum for up to 21 days. Upon harvest of the tissue, typically after 14 days, the vessel segments are placed into resin for histological analysis. Sections are prepared from vessel segments after removal of the first 1.5 mm. […] This file is imported into SigmaScan™, and staining in the areas of the intimal and medial layers quantified. […]

The next data set deals with L1210. Particulars: non-neuronal cell line L1210; cited from earlier work.
The subject of another data set is porcine femoral artery. In words: balloon angioplasty of the porcine femoral artery in vivo. Details: species or system pigs. The settings on record: 14 days. From the text: To test the effectiveness of MIBG under in vivo conditions, this compound was applied to the femoral artery after balloon angioplasty. This model provided a means of testing both MIBG and the method of application. Specifically, male castrated farm pigs (25-30 kg) were anaesthetized and maintained on isoflurane throughout the procedure. With the pig in a supine position, the left femoral artery was exposed from the bifurcation of the femoral and superficial femoral arteries to the point of insertion of the femoral artery into the groin. A mixture of nitroglycerin and papaverine was applied to the vessel and the area was covered with a saline-soaked sponge to keep the tissues moist. The right femoral artery was also exposed, treated and covered with a sponge. The left femoral was then clamped at both groin insertion (proximal) and bifurcation (distal) points, and an arteriotomy made at the bifurcation. The balloon (6.0×20 mm) was inserted through the arteriotomy in a retrograde manner (i.e. toward the groin) to a position 20 mm from the arteriotomy and the proximal clamp removed. The balloon was inflated for 1 minute, deflated and carefully removed, and the arteriotomy was closed with 6.0 ProleneTM suture. MIBG in combination with a biocompatible glue, in this example, Tisseel®, was applied to the surface of the vessel extending from the arteriotomy to the proximal region past the site of balloon inflation. The fibrin glue ensured that MIBG slowly diffused into the vessel. Furthermore, the fibrin glue helps to retain MIBG at the site for several days. The right femoral was handled as described above. […] The extent of restenosis was subsequently monitored by morphometry. […] Digital images were captured with a DAGE-MTI CCD camera and analyzed with SigmaScan Software. The neointimal and medial areas are quantified and used to calculate the neointimal index: neointimal area/medial area. […] Even though the vehicle cannot be detected after 14 days, we conclude that it remains for the minimum period necessary.

The subject of the next data set is smooth muscle cells. In words: Boyden chamber smooth muscle cell migration in response to Angiotensin II. Particulars: 20 μM; 10 μM Angiotensin II in lower compartment; FIG. 17. It is filed as cell-based. How it is done:
Specifically, smooth muscle cells were seeded into the upper chamber of a Boyden chamber, which consists of two compartments that are separated by a permeable membrane. […] Specifically, migration to the lower compartment was determined by counting cells on the underside of the membrane. Data are presented as means ± standard error for six independent determinations.

The test system of data set [2] is Friend erythroleukemia cells. The data set can be described thus: Friend cell differentiation. In kind it is cell-based. The text has this: It is of note however that MIBG acts at a point in the differentiation pathway that is distinct from 3-aminobenzamide.
The test system of data set [3] is porcine coronary artery smooth muscle cells.

On to meta-iodobenzylguanidine [MIBG], for which the neointimal index entry in data set [1] is given as “effectively reduces the neointimal index to control values”. Moreover, the “concentration in cells relative to the surrounding medium” value in the data set on L1210 is 15 times. The “restenosis after balloon angioplasty” value with porcine femoral artery (25 mM in a 1.0 ml Tisseel bolus applied to vessel surface, FIGS. 20 and 21) is given as “effectively prevents restenosis”. Moreover, the “medial fibrosis or cell loss” value in the data set on porcine femoral artery (25 mM in a 1.0 ml Tisseel bolus, FIG. 20) is “no evidence of medial fibrosis”. The “smooth muscle cell migration” value with smooth muscle cells is on record as “inhibited smooth muscle cell migration”. Moreover, the “effect on Friend cell differentiation” value in data set [2] is listed as “inhibits Friend cell differentiation following commitment”. Moreover, in data set [3], the “levels at which cytotoxic” value is at least 200 µM. Further, the “decrease of basal DNA synthesis” value in data set [3] (MIBG alone, highest concentration tested, FIG. 8) is on record as ≤ 40 % of the control. Also, in data set [3] (stimulation by angiotensin II and serum, FIGS. 6 and 7), the “concentrations inhibiting stimulation of DNA and RNA synthesis” value lay within 20 to 50 µM.
